Laboratory results published in patent publication US5627206A, “Tricyclic inhibitor of matrix metalloproteinases” (Warner-Lambert Company, priority 1995, dated 1997).
Where two headings read alike, the source gives them in different places.

What was measured:
[1] = target: T1, GCD (recombinant gelatinase A catalytic domain) (Homo sapiens, UniProt P08253); test: Inhibition of GCD (recombinant gelatinase A catalytic domain), thiopeptolide substrate; format: biochemical; conditions: thiopeptolide substrate Ac-Pro-Leu-Gly-thioester-Leu-Leu-Gly-OEt
T1 construct: propeptide, C-terminal domain and fibronectin-like insert removed; E. coli host likely
T1 sequence (P08253 110-660): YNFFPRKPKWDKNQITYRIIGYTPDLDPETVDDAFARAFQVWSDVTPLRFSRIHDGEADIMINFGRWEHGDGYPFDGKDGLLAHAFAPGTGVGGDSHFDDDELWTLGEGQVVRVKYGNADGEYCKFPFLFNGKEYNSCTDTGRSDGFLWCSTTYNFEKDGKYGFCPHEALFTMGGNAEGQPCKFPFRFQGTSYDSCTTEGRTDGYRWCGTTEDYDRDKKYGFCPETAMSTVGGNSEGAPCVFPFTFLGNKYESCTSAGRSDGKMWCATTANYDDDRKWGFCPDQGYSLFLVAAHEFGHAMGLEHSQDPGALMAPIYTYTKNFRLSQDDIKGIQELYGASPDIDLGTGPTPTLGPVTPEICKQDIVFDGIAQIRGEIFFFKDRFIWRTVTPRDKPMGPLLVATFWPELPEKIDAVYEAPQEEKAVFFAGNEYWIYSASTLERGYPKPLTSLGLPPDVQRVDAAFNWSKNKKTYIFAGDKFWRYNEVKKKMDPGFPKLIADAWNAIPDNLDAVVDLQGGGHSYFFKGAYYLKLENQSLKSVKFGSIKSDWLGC
Excerpt: Matrix metalloproteinases share high sequence homology and the catalytic domains of each of the MMPs can be identified by sequence alignment. The gene for the catalytic domain of stromelysin-1, SCD, was constructed by removing the propeptide and C-terminal domain (Ye Q.-Z., Johnson L.L, Hupe D.J., and Baragi V., "Purification and Characterization of the Human Stromelysin Catalytic Domain Expressed in Escherichia coli", Biochemistry,1992;31:11231-11235). The gelatinase A catalytic domain, GCD, was similarly constructed with the additional removal of the fibronectin-like insert which interrupts the catalytic domain (Ye Q.-Z., Johnson L.L, Yu A.E., and Hupe D., "Reconstructed 19 kDa Catalytic Domain of Gelatinase A is an Active Proteinase", Biochemistry, 1995;34:4702-4708). Both truncated proteins cleave synthetic peptide substrates and the natural substrates proteoglycan and gelatin in a manner similar to the full-length enzymes and can be used to identify matrix metalloproteinase inhibitors.
Experiments were carried out with both the full-length enzymes and the catalytic domains. […] IC50 values were determined using a thiopeptolide substrate, Ac-Pro-Leu-Gly-thioester-Leu-Leu-Gly-OEt (Ye Q.-Z., Johnson L.L., Hupe D.J., and Baragi V., "Purification and Characterization of the Human Stromelysin Catalytic Domain Expressed in Escherichia coli", Biochemistry,1992;31:11231-11235). […]

[2] = target: T2, collagenase (full-length native enzyme) (Homo sapiens, UniProt P03956); test: Inhibition of collagenase (full-length native enzyme), thiopeptolide substrate; format: biochemical
T2 construct: collagenase (full-length native enzyme)
T2 sequence (P03956 100-469): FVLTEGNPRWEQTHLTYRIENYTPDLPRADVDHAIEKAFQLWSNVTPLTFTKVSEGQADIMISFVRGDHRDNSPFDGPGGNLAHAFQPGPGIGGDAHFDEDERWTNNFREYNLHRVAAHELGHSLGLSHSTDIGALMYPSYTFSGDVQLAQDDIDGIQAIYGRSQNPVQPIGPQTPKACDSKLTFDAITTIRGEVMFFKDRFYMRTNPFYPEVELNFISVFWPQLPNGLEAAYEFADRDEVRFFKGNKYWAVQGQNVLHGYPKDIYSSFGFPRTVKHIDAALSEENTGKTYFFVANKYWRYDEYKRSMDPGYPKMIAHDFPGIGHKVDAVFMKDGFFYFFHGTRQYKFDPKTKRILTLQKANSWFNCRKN
Protocol: Experiments were carried out with both the full-length enzymes and the catalytic domains. […] IC50 values were determined using a thiopeptolide substrate, Ac-Pro-Leu-Gly-thioester-Leu-Leu-Gly-OEt (Ye Q.-Z., Johnson L.L., Hupe D.J., and Baragi V., "Purification and Characterization of the Human Stromelysin Catalytic Domain Expressed in Escherichia coli", Biochemistry,1992;31:11231-11235). […] IC50 values for gelatinase B, and collagenase, were >100 μM.

EAE Rats [3] = test: EAE Lewis rat acute model, Protocol 1 (daily oral dosing Day 0-14); format: in vivo
Protocol: (§1) Female Lewis rats were purchased from Harlan Sprague-Dawley (Indianapolis, IN) and were used at 8 to 10 weeks of age. Active EAE was induced by injection of 0.05 mL emulsion of myelin basic protein (MBP) with complete Freund's adjuvant (CFA), containing 25 μg guinea pig MBP and 100 μg Mycobacterium butyricum (Difco Laboratories, Detroit, MI) into one hind footpad. Immunized rats were observed daily for clinical signs of EAE and scored as follows: 0, no symptoms; 1, loss of tail tonicity; 2, paresis; 3, hind limb paralysis, often accompanied by incontinence; and 4, death. Formalin-fixed brain slice sections were stained with hematoxylin-eosin and evaluated microscopically for perivascular and parenchymal infiltration. Compound was administered by gavage as a solution in sterile saline in a volume of 500 μL. […] Several different protocols were used to define the efficacy and timing requirements for potency.
Protocol 1: Compound was administered daily at 50 mg/kg beginning on Day 0 and continuing through Day 14, with MBP in CFA administered on Day 0 also. […] N=5 for all groups.

EAE Rats [4] = test: EAE Lewis rat acute model, Protocol 2 (alternate-day oral dosing Day 0-14); format: in vivo; conditions: for Effect on EAE Rats (≥Paresis/Total): CFA + MBP control 5/7
Protocol: as §1
Controls run in parallel included CFA only and MBP in CFA. N=4 for treatment groups. N=8 for controls.

[5] = system: leukocyte migration across the blood-brain barrier; test: Histology of brain slices from Protocol 1 EAE animals; format: in vivo, Lewis rat; conditions: 50 mg/kg daily dosing schedule
Protocol: The activity of Example 2 in suppressing the inflammatory disease associated with EAE was tested using the Lewis rat acute model. Female Lewis rats were purchased from Harlan Sprague-Dawley (Indianapolis, IN) and were used at 8 to 10 weeks of age. Active EAE was induced by injection of 0.05 mL emulsion of myelin basic protein (MBP) with complete Freund's adjuvant (CFA), containing 25 μg guinea pig MBP and 100 μg Mycobacterium butyricum (Difco Laboratories, Detroit, MI) into one hind footpad. Immunized rats were observed daily for clinical signs of EAE and scored as follows: 0, no symptoms; 1, loss of tail tonicity; 2, paresis; 3, hind limb paralysis, often accompanied by incontinence; and 4, death. Formalin-fixed brain slice sections were stained with hematoxylin-eosin and evaluated microscopically for perivascular and parenchymal infiltration. Compound was administered by gavage as a solution in sterile saline in a volume of 500 μL. The dose of 50 mg/kg typically required 7.5 mg of compound per rat. Several different protocols were used to define the efficacy and timing requirements for potency.

[6] = system: Mycobacterium footpad edema; test: Mycobacterium footpad edema assay (MFE); format: in vivo, Wistar rats; conditions: all values of Table IV (2, 10, 50 mg/kg)
Protocol: (§2) The activity of Example 2 as a general inhibitor of inflammation was tested using the Mycobacterium footpad edema assay (MFE) in Wistar rats. Compound was administered daily by gavage at 2 mg/kg, 10 mg/kg, or 50 mg/kg.
Male outbred Wistar rats (110-125 g, Charles River Labs, Portage, Mich.) were used in this study. Rats were housed for a minimum of 1 week before use. Food and water were supplied ad libitum. Foot pad edema was induced following the method described by Martel R.R. and Klicius J., "Comparisons in rats of the antiinflammatory and gastric irritant effects of etodolac with several clinically effective antiinflammatory drugs", Agents and Actions, 1982;12:295. […] Swelling was assessed on the third day by subtracting the initial volume (determined immediately following the Mycobacterium injection) from the final volume of the treated paw. Paw volume was determined by mercury plethysmography. The percent inhibition of edema achieved in each compound-treated group was determined by comparison with swelling in the vehicle-treated group and the ID50 values were determined by regression analysis. Statistical significance between experimental groups was evaluated using a Student's t-test.

[7] = Plasma concentrations after oral dosing; format: in vivo, Wistar rats; conditions: for Cmax: read-out: plasma concentration (Cmax)
Protocol: as §2, with “mg/kg. […] The bioavailability of this compound is therefore well in excess of the effective range of gelatinase A inhibition determined in the in vitro assays.” for “mg/kg.”

[8] = system: experimental allergic encephalomyelitis (EAE); conditions: Gijbels et al.; dose dependent; cited from earlier work

O=C(O)CCC(=NO)c1ccc2oc3ccccc3c2c1 [Example 2, 4-Dibenzofuran-2-yl-4-hydroximino-butyric acid]
IC50 [1]: 40 nM | IC50 [2]: > 100000 nM | average scores for the treated group (EAE Rats [3]; 50 mg/kg daily, Day 0 through Day 14): substantially reduced | percentage of animals responding (total inhibition or reduction of symptoms) (EAE Rats [3]; 50 mg/kg daily, Day 0 through Day 14, N=5): 100% | Effect on EAE Rats (≥Paresis/Total) (EAE Rats [3]; CFA + Example 2 (no MBP), 50 mg/kg daily oral from Day 0): 0/5 | Effect on EAE Rats (≥Paresis/Total) (EAE Rats [3]; CFA + MBP + Example 2, 50 mg/kg daily oral from Day 0, CFA + MBP control 5/5): 1/5 | Effect on EAE Rats (≥Paresis/Total) (EAE Rats [4]; CFA + MBP + Example 2, 10 mg/kg alternate days): 0/4 | Effect on EAE Rats (≥Paresis/Total) (EAE Rats [4]; CFA + MBP + Example 2, 50 mg/kg alternate days): 0/4 | significance (p) of decrease in disease severity (EAE Rats [4]; Day 15, 10 or 50 mg/kg alternate days): ≤ 0.01 | CNS inflammation [5]: little CNS inflammation | cuff formation [5]: no cuff formation | leukocyte migration across the blood-brain barrier [5]: completely prevented | statistical significance of inhibition of the inflammatory response [6]: statistically significant | Cmax and AUC(0-4) dose dependence ([7]; 2, 10, 50 mg/kg): increase proportionately with dose | Cmax ([7]; rat, plasma, po, 2-mg/kg dose): 4.62 µM | Cmax ([7]; rat, plasma, po, 10-mg/kg dose): 38.8 µM | Cmax ([7]; rat, plasma, po, 50-mg/kg dose): 163 µM | Tmax ([7]; rat, plasma, po, post-treatment, read-out: time of peak plasma concentration): 1 h | plasma concentration decline ([7]; through the subsequent 4 hours after peak): declined mono-exponentially

CNC(=O)[C@H](Cc1c[nH]c2ccccc12)NC(=O)[C@@H](CC(=O)NO)CC(C)C [GM6001]
effect on development or clinical expression of EAE [8]: suppressed the development or reversed the clinical expression of experimental allergic encephalomyelitis (EAE) in a dose dependent manner
